Where two headings read alike, the source gives them in different places. Peptide text beside a SMILES is read from it.
Columns and labels:
[1] = test system: AGE2 production by glyceraldehyde and bovine serum albumin; assay: Inhibition of AGE2 production by glyceraldehyde and serum albumin (ELISA with anti-AGE2 polyclonal antibody); conditions: read-out: IC50 of inhibition of AGE2 production; 10 mM glyceraldehyde, 10 mg/ml bovine serum albumin, phosphate buffer pH 7.4, 37° C., 3 days
Procedure: (§1) Three days later, AGE2 concentration of the reaction mixture was measured, and IC50 value of inhibition of AGE2 production by each peptide or amino acid was calculated. The AGE2 measurement was performed by the ELISA method using an anti-AGE2 polyclonal antibody prepared from rabbit, according to a conventional method.

[2] = test system: AGE2 production by glyceraldehyde and bovine serum albumin; conditions: pH 7.4
Procedure: as §1

[3] = AGE2-producing capability by reaction of oligopeptide with glyceraldehyde (ELISA with anti-AGE2 polyclonal antibody); assay type: biochemical; conditions: for AGE2 concentration: 10 mM amino acid or peptide + 100 mM glyceraldehyde, 0.1M phosphate buffer pH 7.4, 37° C., 1 week
Procedure: To 0.1M phosphate buffer (pH 7.4) containing 10 mM of any of Lys, Lys-Lys, Lys-Lys-Lys, and Lys-Lys-Lys-Lys (SEQ ID NO: 1) was added 100 mM glyceraldehyde and the mixture was reacted at 37° C. for 1 week. One week later, the AGE2 concentration of the reaction mixture was measured.

serum AGE2 = assay: Serum AGE2 concentration reduction in diabetic mouse model (db/db mouse); assay type: in vivo; conditions: db/db mice
Procedure: 7-Week-old male db/db mice were randomly divided into 4 groups (3 per group), distilled water, 10 mM Lys-Lys solution, 30 mM Lys-Lys solution, or 100 mM Lys-Lys solution was freely given for 10 days as drinking water, blood samples were collected from the heart, and the serum AGE2 concentration was measured.

IC50 ([2]; bovine, 3 days)	SMILES	IC50 [1]	AGE2 concentration [3]	further results
	N=C(N)NCCC[C@H](N)C(=O)O [Arg, reference compound]	1900 µM		
780 µM	NCCCC[C@H](NC(=O)[C@@H](N)CCCN=C(N)N)C(=O)O [Arg-Lys] (H-Arg-Lys-OH)			
	NCCCC[C@H](N)C(=O)O [Lys, reference compound]		0.47 U/ml	IC50 [2]: 2200 µM
	NCCCC[C@H](NC(=O)[C@H](CCCCN)NC(=O)[C@H](CCCCN)NC(=O)[C@@H](N)CCCCN)C(=O)O [Lys-Lys-Lys-Lys] (H-KKKK-OH)	620 µM	14.2 U/ml	
560 µM	NCCCC[C@H](NC(=O)[C@@H](N)CCCCN)C(=O)O [Lys-Lys]		4.7 U/ml	serum AGE2 concentration (serum AGE2; 10 mM solution as drinking water for 10 days): 3.5 ± 0.6 U/ml; serum AGE2 concentration (serum AGE2; 30 mM solution as drinking water for 10 days): 2.3 ± 0.4 U/ml; serum AGE2 concentration (serum AGE2; 100 mM solution as drinking water for 10 days): 1.7 ± 0.2 U/ml; serum AGE2 concentration, dose dependence (serum AGE2; 10-100 mM solution as drinking water for 10 days): decreased in a manner dependent on the Lys-Lys concentration; AGE2 production capacity relative to Lys alone ([3]; reaction with glyceraldehyde, versus Lys alone): about 10 times

Reference: patent publication US20070049535A1, “PREVENTIVE/REMEDY FOR DIABETIC COMPLICATIONS USING OLIGOPEPTIDE” (priority 2004, published 2007)
